Data: patent publication US5008252A, “Process for inhibiting herpes simplex virus-specified thymidine kinase” (The University of North Carolina at Chapel Hill, priority 1987, dated 1991)
“And” between values parts separate entries of the source, which are not always exact repeats. Identical values can stand only once.

What was measured:
virus DNA synthesis = assay: Virus DNA synthesis, isopycnic centrifugation of 32PO4-labeled DNA; assay type: cell-based; conditions: 5'-Et-dThd by itself; 32PO4-labeled virus DNA separated from host DNA
Description: By itself, 5'-Et-dThd had no effect on virus yield (Table II) and on virus DNA synthesis as determined from isopycnic centrifugation studies where ^32 PO4 -labeled virus DNA was separated from host DNA. Nucleoside analogs have been developed based on the "selective alternate substrate" strategy, and depend on viral dThd kinase for their antiviral activity. The effect of 5'-Et-dThd on the antiviral efficacy of five such analogs, ACV, 9-(1, 3-dihydroxy-2-propoxymethyl) guanine (DHPG), fluoroido-arabinosyl-cytosine (FIAC), BVDU and 5'-amino-dThd (5'-NH2 -dThd) has been examined. The effect of 5'-Et-dThd on the activity of the five agents was determined by the virus yield assay using HSV-1 (strain KOS)-infected HeLa BU cells. At 100 μM, 5'-Et-dThd reversed the antiviral activity of ACV (15 μM), DHPG (2 μM), FIAC (1 μM), BVDU (1 μM) and 5'-NH2 -dThd (500 μM)35-, 100-, 98-, 15- and 250-fold, respectively (Table II). […] The results further indicate that the use of 5'-Et-dThd in the prophylaxis/prevention of virus reactivation would require a sequential order when used with virus dThd kinase-dependent antiviral agents.

host dTMP kinase = biological target: T1, host dTMP kinase (Homo sapiens, UniProt P23919); assay: dTMP (thymidylate) kinase assay, crude extracts of HSV-2 (333)-infected HeLa BU cells; assay type: biochemical; conditions: 25 μM dTMP substrate, read-out: IC50 of dTMP kinase (reflects host dTMP kinase activity)
T1 construct: endogenous in cells; host or cells: HSV-2 (333)-infected HeLa BU cells, extract
Protocol: (§1) The thymidylate kinase and synthase assays were performed according to known procedures (see, Cheng, Y.-C. & Prusoff, W. H. (1974) Anal. Biochem. 60:545-550; Roberts, D. (1966) Biochemistry 5:3546-3548; Dolnick, B. J. & Cheng, Y. C. (1977) J. Biol. Chem. 252:7697-7703). dThd phosphorylase activity was determined by monitoring conversion of [^14 C]dThd to [14 C] thymine using high performance liquid chromatography (HPLC). Briefly, after a 30 min incubation of enzyme extract with radiolabeled dThd at 37° C., the reaction was stopped by addition of 25% trichloroacetic acid. After neutralization and centrifugation, the supernatants were loaded on to an Alltech Lichrosorb RP-18 column, and the column was eluted at a rate of 1 ml/min with 5 mM KH2 PO4 (pH 3.5)--10% methanol. Fractions of 1 ml were collected and radioactivity associated with dThd and thymine (as previously determined by retention times of authentic markers measured by their absorbance at 265 nm) was measured by scintillation counting. For evaluation of whether 5'-Et-dThd could serve substrate for dThd phosphorylase, reactions were carried out as described as above, except that 5'-Et-dThd was used instead of [^14 C]dThd; metabolites were then analyzed by HPLC as described above.

[1] = biological target: HSV-1 B3 dThd kinase in infected HeLa BU cells (Human alphaherpesvirus 1 strain SC16, UniProt P06479); assay: Intracellular dThd kinase activity ([14C]dThd phosphorylation); assay type: cell-based, HSV-1 (strain B3); conditions: intracellular [14C]dThd phosphorylation
Protocol: (§2) Intracellular dThd kinase activity. HeLa S3 or HeLa BU cells (1.5×10^6 /ml) were mock infected or infected with HSV-1 or HSV-2at 3 PFU/cell and incubated at 37° C. for a 1 h adsorption period. The medium was then removed, and the cells were washed with growth medium and resuspended at a cell density of 5×10^5 cells/ml in RPMI 1640 medium supplemented with kanamycin (100 μg/ml) and 5% dialyzed fetal bovine serum. At 9 h post-HSV infection, [14C]dThd (0.16 μCi/ml; 1 μM dThd) and different amounts of 5'-Et-dThd were added to the medium depending on experimental conditions. At the end of the labeling period (1 h), the cells were pelleted by centrifugation, washed with phosphate-buffered-saline (PBS) and resuspended in a small volume of PBS. Aliquots were then pipetted directly onto DE81 discs which were immediately washed in 100% EtOH. The DE81 discs were washed two additional times in 100% EtOH, and then radioactivity associated with the discs was measured by scintillation counting in 5 ml of aqueous counting fluid. In this manner, total intracellular dThd kinase activity was determined from the sum of radioactive acid soluble dThd nucleotides plus the acid insoluble dTMP associated with DNA, both precipitated directly on the DE81 discs.

[2] = tested on: HSV-1-infected HeLa S3 cells; assay: Intracellular dThd phosphorylation; assay type: cell-based; conditions: 25 μM, 9 h post infection, 1 h labeling
Protocol: as §2

[3] = tested on: mock infected HeLa S3 cells; assay: Intracellular dThd phosphorylation; assay type: cell-based; conditions: increasing amounts of 5'-Et-dThd
Protocol: as §2

[4] = tested on: HSV-2-infected HeLa S3 cells; assay: Intracellular dThd phosphorylation; assay type: cell-based; conditions: 25 μM, 9 h post infection, 1 h labeling
Protocol: as §2

HSV-1 SC16 dThd kinase = HSV-1 SC16 dThd kinase (Human herpesvirus 1, UniProt P06479); assay: dThd kinase assay in vitro, enzyme extracts; assay type: biochemical, HSV-1 (strain SC16); conditions: enzyme extracts of infected HeLa BU cells, 100 μM dThd
Protocol: Virus stocks. The viruses used were HSV-1 (strains KOS, SC16, B3 and Tr7) and HSV-2(strain 333). dThd kinase mutants of HSV (SC16), B3 and Tr7, were isolated in the presence of (E)-5-(2-bromovinyl)-2'-deoxyuridine (BVDU) at 10 μg/ml and ACV at 1 μg/ml, respectively (Darby, G., Field, H.J. & Salisbury, S. A. (1982) Nature (London) 289:81-83; Field, H.J & Neden J. (1982) Antiviral Res. 2:243254).
Enzyme purification, enzyme assays, IC50 and Ki determinations. The cellular cytosolic dThd kinase used to determine the Ki values was isolated from KB6B cells. The HSV-1 and HSV-2dThd kinases were extracted from dThd kinase-deficient HeLa BU cells infected with HSV-1 (strain KOS) and HSV-2(strain 333), respectively. All of the dThd kinases were purified using affinity column chromatography procedures described by Lee, L. S. and Cheng, Y.-C. (J. Biol. Chem. 251:2600-2604 (1976)). The dThd kinase assay used was the same as that described by Cheng, Y.-C. & Ostrander, M. (J. Biol. Chem. 251:2605-2610 (1976)). Incubations were conducted at 37° C. for 60 min and the Ki and 50% […] concentration (IC50) values were determined as described by Cheng, Y.-C. and Prusoff, W. H. (Biochem. Pharmacol. 22:3099-3108 (1976)).

[5] = biological target: HSV-1 (strain KOS) dThd kinase-associated dTMP kinase (Human alphaherpesvirus 1 strain KOS, UniProt P17402); assay: dTMP (thymidylate) kinase assay, crude extracts; assay type: biochemical; conditions: HSV-1 KOS
Protocol: as §1

T1 sequence (P23919 whole entry): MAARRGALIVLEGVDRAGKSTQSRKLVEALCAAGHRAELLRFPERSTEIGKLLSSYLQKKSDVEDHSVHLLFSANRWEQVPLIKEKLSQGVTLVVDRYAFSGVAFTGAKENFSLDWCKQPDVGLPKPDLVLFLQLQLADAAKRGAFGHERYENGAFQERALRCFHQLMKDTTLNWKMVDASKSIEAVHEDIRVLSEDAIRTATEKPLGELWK

5'-ethynylthymidine [5'-Et-dThd]
effect on virus DNA synthesis (virus DNA synthesis): no effect | IC50 (host dTMP kinase): 60 µM | IC50 [1]: < 10 µM and 6 µM | dThd phosphorylating activity, % of untreated control [2]: 25% | accumulation of intracellular phosphorylated [14C]-dThd metabolites [3]: increased slightly | dThd phosphorylating activity, % of untreated control [4]: 88% | IC50 (HSV-1 SC16 dThd kinase): 5 µM | IC50 of virus-associated dTMP kinase ([5]; 25 μM dTMP substrate): 0.3 µM | IC50 of virus-associated dTMP kinase ([5]; 100 μM dTMP substrate): 0.8 µM
